Data published in ChEMBL document CHEMBL4483862, “Open-source discovery of chemical leads for next-generation chemoprotective antimalarials” (2018).

Test system: Plasmodium berghei
Experiment: Luciferase/luciferin-expressing antifolate-resistant parasites were used to infect a culture of HepG2 cells that were pre-incubated with compounds. Infected hepatocytes emit light due to the luciferase reaction. Assay results are presented as the percent inhibition of light emission compared to control. […]
Assay type: functional
Settings: sporozoite; for IC90: read-out: LUCIFERASE INFECTION ASSAY - IC90

With N/C(=N\OC(=O)c1ccc2ncsc2c1)c1ccccc1 the IC50 (FFLUC_HILL_SLOPE 2.58, FFLUC_R_SQUARED 0.671, PBLUC_HILL_SLOPE 1.01, PBLUC_R_SQUARED 0.623, read-out: LUCIFERASE INFECTION ASSAY - IC50) was 1.1 µM and the IC90 was 9.73 µM.

For O=C(COC(=O)c1cc2ccccc2cc1O)NC(c1ccccc1)c1ccccc1, the IC50 (FFLUC_HILL_SLOPE 2.56, FFLUC_R_SQUARED 0.57, PBLUC_HILL_SLOPE 2.71, PBLUC_R_SQUARED 0.551, read-out: LUCIFERASE INFECTION ASSAY - IC50) was 4.79 µM and the IC90 was > 10 µM.

Compound COc1ccc2c(-c3ccccc3)cc(SC(C)C(=O)N3CCNC3=O)nc2c1 (stereo not given) has an IC50 (FFLUC_HILL_SLOPE 2.47, FFLUC_R_SQUARED 0.615, PBLUC_HILL_SLOPE 18.2, PBLUC_R_SQUARED 0.514, read-out: LUCIFERASE INFECTION ASSAY - IC50) of 1.11 µM and an IC90 of 1.25 µM.

In the case of Cc1cc(C2=NNC(=NC3CC3)SC2)c(C)n1-c1ccc2c(c1)OCO2, the IC50 (FFLUC_HILL_SLOPE 2.46, FFLUC_R_SQUARED 0.719, PBLUC_HILL_SLOPE 1.67, PBLUC_R_SQUARED 0.595, read-out: LUCIFERASE INFECTION ASSAY - IC50) is reported as 2.61 µM and the IC90 is reported as 9.71 µM.

In the case of CC(c1nc2ccccc2s1)N(C)c1ncnc2sc3c(c12)CCC3 (stereo not given), the IC50 (FFLUC_HILL_SLOPE 2.52, FFLUC_R_SQUARED 0.413, HEPG2TOX_HILL_SLOPE 5.64, HEPG2TOX_R_SQUARED 0.118, PBLUC_HILL_SLOPE 2.14, PBLUC_R_SQUARED 0.426, read-out: LUCIFERASE INFECTION ASSAY - IC50) is reported as > 10 µM and the IC90 is reported as > 10 µM.

In the case of CN(C1CCCCC1)S(=O)(=O)c1ccc(NC(=S)NC(=O)c2ccco2)cc1, the IC50 (FFLUC_HILL_SLOPE 2.51, FFLUC_R_SQUARED 0.131, read-out: LUCIFERASE INFECTION ASSAY - IC50) is reported as > 10 µM and the IC90 is reported as > 10 µM.

Compound CC(C)(C)c1ccc(C(=N)NOC(=O)c2sccc2Cl)cc1 has an IC50 (FFLUC_HILL_SLOPE 2.56, FFLUC_R_SQUARED 0.405, HEPG2TOX_HILL_SLOPE 0.0994, HEPG2TOX_R_SQUARED 0.101, PBLUC_HILL_SLOPE 0.809, PBLUC_R_SQUARED 0.834, read-out: LUCIFERASE INFECTION ASSAY - IC50) of 0.159 µM and an IC90 of 2.4 µM.

For C=CCn1c(SCC(=O)c2cc(C)n(CC3CCCO3)c2C)nc2scc(-c3ccc(C)cc3)c2c1=O (stereo not given), the IC50 (FFLUC_HILL_SLOPE 2.53, FFLUC_R_SQUARED 0.599, read-out: LUCIFERASE INFECTION ASSAY - IC50) was > 10 µM and the IC90 was > 10 µM.

With O=C(Nc1nc2ccccc2[nH]1)c1cn(-c2ccccc2C(F)(F)F)nn1 the IC50 (FFLUC_HILL_SLOPE 2.58, FFLUC_R_SQUARED 0.587, PBLUC_HILL_SLOPE 2.16, PBLUC_R_SQUARED 0.829, read-out: LUCIFERASE INFECTION ASSAY - IC50) was 5.53 µM and the IC90 was > 10 µM.

In the case of c1ccc(NCc2ccc(-c3cn4c(-c5ccccc5)cnc4cn3)cc2)cc1, the IC50 (FFLUC_HILL_SLOPE 2.57, FFLUC_R_SQUARED 0.0602, PBLUC_HILL_SLOPE 15.1, PBLUC_R_SQUARED 0.239, read-out: LUCIFERASE INFECTION ASSAY - IC50) is reported as 7.8 µM and the IC90 is reported as > 8.77 µM.

With Cc1nn(-c2ccccc2)c2nc(-c3cccs3)cc(C(=O)OC(C)C(=O)N3CCCc4ccccc43)c12 (stereo not given) the IC50 (FFLUC_HILL_SLOPE 2.63, FFLUC_R_SQUARED 0.683, PBLUC_HILL_SLOPE 9.18, PBLUC_R_SQUARED 0.333, read-out: LUCIFERASE INFECTION ASSAY - IC50) was 8.32 µM and the IC90 was > 10 µM.

O=[N+]([O-])c1ccccc1Sc1sc2ncnc(N/N=C/c3cccs3)c2c1-c1ccccc1 showed an IC50 (FFLUC_HILL_SLOPE 2.47, FFLUC_R_SQUARED 0.702, HEPG2TOX_HILL_SLOPE 1.48, HEPG2TOX_R_SQUARED 0.963, PBLUC_HILL_SLOPE 5.47, PBLUC_R_SQUARED 0.841, read-out: LUCIFERASE INFECTION ASSAY - IC50) of 0.785 µM and an IC90 of 1.17 µM.

Work on Cc1ccc(/C=C2\Oc3cc(O)cc(C)c3C2=O)cc1 yielded an IC50 (FFLUC_HILL_SLOPE 2.5, FFLUC_R_SQUARED 0.135, PBLUC_HILL_SLOPE 2.13, PBLUC_R_SQUARED 0.666, read-out: LUCIFERASE INFECTION ASSAY - IC50) of 2.63 µM and an IC90 of 7.36 µM.

For Cc1ccc2cc(CN(CC(C)C)C(=O)c3cccc(Cl)c3)c(=O)[nH]c2c1, the IC50 (FFLUC_HILL_SLOPE 2.55, FFLUC_R_SQUARED 0.111, HEPG2TOX_HILL_SLOPE 13.7, HEPG2TOX_R_SQUARED 0.575, PBLUC_HILL_SLOPE 6.1, PBLUC_R_SQUARED 0.569, read-out: LUCIFERASE INFECTION ASSAY - IC50) was 3.21 µM and the IC90 was 4.61 µM.

With CCN(Cc1ccccc1)c1ccc(/C=N/Nc2ccc(C)c(Cl)c2)cc1 the IC50 (FFLUC_HILL_SLOPE 2.55, FFLUC_R_SQUARED 0.818, read-out: LUCIFERASE INFECTION ASSAY - IC50) was > 10 µM and the IC90 was > 10 µM.

With CC(C)C(=O)Nc1ccc(-c2nc3ccccc3[nH]2)cc1 the IC50 (FFLUC_HILL_SLOPE 2.58, FFLUC_R_SQUARED 0.591, PBLUC_HILL_SLOPE 1.21, PBLUC_R_SQUARED 0.595, read-out: LUCIFERASE INFECTION ASSAY - IC50) was 4.49 µM and the IC90 was > 11.8 µM.

O=C1NC2(CCCc3ccccc32)C(=O)N1Cc1cc2ccccc2nc1Cl (stereo not given) showed an IC50 (FFLUC_HILL_SLOPE 2.55, FFLUC_R_SQUARED 0.444, HEPG2TOX_HILL_SLOPE 2.36, HEPG2TOX_R_SQUARED 0.953, PBLUC_HILL_SLOPE 3.3, PBLUC_R_SQUARED 0.364, read-out: LUCIFERASE INFECTION ASSAY - IC50) of 5.08 µM and an IC90 of 9.89 µM.

COc1ccc(C(C#N)=C2C=CC(=NO)C=C2)cc1 was tested, and the IC50 (FFLUC_HILL_SLOPE 2.5, FFLUC_R_SQUARED 0.687, PBLUC_HILL_SLOPE 18.8, PBLUC_R_SQUARED 0.229, read-out: LUCIFERASE INFECTION ASSAY - IC50) was 12.9 µM and the IC90 was > 13.1 µM.

For O=[N+]([O-])c1ccc(Sc2ccc(Cl)cc2)c(-c2cc[nH]n2)c1, the IC50 (FFLUC_HILL_SLOPE 2.47, FFLUC_R_SQUARED 0.0888, HEPG2TOX_HILL_SLOPE 0.21, HEPG2TOX_R_SQUARED 0.178, PBLUC_HILL_SLOPE 0.977, PBLUC_R_SQUARED 0.273, read-out: LUCIFERASE INFECTION ASSAY - IC50) was > 9.95 µM and the IC90 was > 9.95 µM.

Cc1cccc(CNc2nc3cnc(-c4cccc(Oc5ccccc5)c4)cc3n2C)c1 gave an IC50 (FFLUC_HILL_SLOPE 2.46, FFLUC_R_SQUARED 0.608, HEPG2TOX_HILL_SLOPE 16, HEPG2TOX_R_SQUARED 0.341, PBLUC_HILL_SLOPE 8.58, PBLUC_R_SQUARED 0.684, read-out: LUCIFERASE INFECTION ASSAY - IC50) of 3 µM and an IC90 of 3.88 µM.

With O=C(c1cc2c(s1)CCC2)N1C=CN(c2ccc(C(F)(F)F)cn2)C1c1nccn1-c1ccc(C(F)(F)F)cn1 (stereo not given) the IC50 (FFLUC_HILL_SLOPE 2.58, FFLUC_R_SQUARED 0.668, PBLUC_HILL_SLOPE 14.8, PBLUC_R_SQUARED 0.174, read-out: LUCIFERASE INFECTION ASSAY - IC50) was 9.12 µM and the IC90 was > 10 µM.

With CC(C)(C)C(=O)Nc1ccc(-c2nc3ncccc3o2)c(Cl)c1 the IC50 (FFLUC_HILL_SLOPE 2.53, FFLUC_R_SQUARED 0.8, PBLUC_HILL_SLOPE 0.961, PBLUC_R_SQUARED 0.809, read-out: LUCIFERASE INFECTION ASSAY - IC50) was 0.502 µM and the IC90 was 4.94 µM.

Work on Oc1cccnc1NC(c1ccccc1F)c1ccc2cccnc2c1O (stereo not given) yielded an IC50 (FFLUC_HILL_SLOPE 2.5, FFLUC_R_SQUARED 0.451, HEPG2TOX_HILL_SLOPE 1.9, HEPG2TOX_R_SQUARED 0.963, PBLUC_HILL_SLOPE 13, PBLUC_R_SQUARED 0.418, read-out: LUCIFERASE INFECTION ASSAY - IC50) of 8.03 µM and an IC90 of 9.5 µM.

Work on Cc1ccc2nc(NC(=O)c3cccc(C(F)(F)F)c3)c(C(=O)NC3CCCCC3)n2c1 yielded an IC50 (FFLUC_HILL_SLOPE 2.54, FFLUC_R_SQUARED 0.701, HEPG2TOX_HILL_SLOPE 1.03, HEPG2TOX_R_SQUARED 0.261, PBLUC_HILL_SLOPE 2.67, PBLUC_R_SQUARED 0.838, read-out: LUCIFERASE INFECTION ASSAY - IC50) of 0.254 µM and an IC90 of 0.579 µM.

CCc1nn2c(=O)cc(CSc3ccc(C)cc3)[nH]c2c1-c1ccc(F)cc1 was tested, and the IC50 (FFLUC_HILL_SLOPE 2.56, FFLUC_R_SQUARED 0.75, PBLUC_HILL_SLOPE 10.5, PBLUC_R_SQUARED 0.512, read-out: LUCIFERASE INFECTION ASSAY - IC50) was 2.42 µM and the IC90 was 2.98 µM.

With Cc1ccc(S(=O)(=O)Nc2ccc(Oc3ccc(Cl)cc3)cc2)cc1 the IC50 (FFLUC_HILL_SLOPE 2.59, FFLUC_R_SQUARED 0.0226, PBLUC_HILL_SLOPE 17.9, PBLUC_R_SQUARED 0.275, read-out: LUCIFERASE INFECTION ASSAY - IC50) was 8.28 µM and the IC90 was > 8.83 µM.

For OC(c1cccc(OC(F)(F)F)c1)c1nnc(Nc2ccc(F)c(Cl)c2)s1 (stereo not given), the IC50 (FFLUC_HILL_SLOPE 2.61, FFLUC_R_SQUARED 0.0634, read-out: LUCIFERASE INFECTION ASSAY - IC50) was > 10 µM and the IC90 was > 10 µM.

CC(=N)C(C#N)c1csc(Nc2cc(C)cc(C)c2)n1 (stereo not given) was tested, and the IC50 (FFLUC_HILL_SLOPE 2.53, FFLUC_R_SQUARED 0.471, read-out: LUCIFERASE INFECTION ASSAY - IC50) was > 10 µM and the IC90 was > 10 µM.

In the case of Cc1ccc(C(C)C)c(OCC(=O)Nc2ccc(I)c(C)n2)c1, the IC50 (FFLUC_HILL_SLOPE 2.58, FFLUC_R_SQUARED 0.455, read-out: LUCIFERASE INFECTION ASSAY - IC50) is reported as > 10 µM and the IC90 is reported as > 10 µM.

O=c1c(Cl)c(Cl)cnn1-c1cc(Cl)cc(Cl)c1 showed an IC50 (FFLUC_HILL_SLOPE 2.56, FFLUC_R_SQUARED 0.592, HEPG2TOX_HILL_SLOPE 5.14, HEPG2TOX_R_SQUARED 0.846, PBLUC_HILL_SLOPE 13.3, PBLUC_R_SQUARED 0.218, read-out: LUCIFERASE INFECTION ASSAY - IC50) of 3.63 µM and an IC90 of 4.28 µM.
